Test results as given in patent US6852673B2, “Herbicidal pyridine compounds” (BASF Aktiengesellschaft, priority 1998, dated 2005).

What was measured:
Assay type in all cases: in vivo
[1] = test system: Echinochloa grus galli (ECHCG); assay: Pre-emergence herbicidal evaluation, barnyard grass
In short: (§1)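 Seeds planted in potting soil, then pots sprayed pre-emergence with aqueous acetone solution of test compound at about 0.0125 to 0.4 kg/ha. Kept under standard greenhouse care; injury rated 2 to 4 weeks after treatment.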

Lamium purpureum (LAMPU) [2] = assay: Post-emergence herbicidal evaluation, purple deadnettle; details: rated 2 to 4 weeks after treatment
In short: (§2)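 Plants rated 0–9 (0 = growth as untreated control, 9 = death) 2 to 4 weeks after greenhouse post-emergence treatment. Formulations were water-diluted acetone solutions sprayed at doses equivalent to about 0.03 to 0.4 kg test compound per hectare per pot.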

[3] = test system: Abutilon theophrasti (ABUTH); assay: Pre-emergence herbicidal evaluation, velvetleaf
In short: as §1

[4] = test system: Triticum aestivum (TRZAW); assay: Pre-emergence herbicidal evaluation, winter wheat
In short: as §1

[5] = test system: Ipomoea hederacea (IPOHE); assay: Pre-emergence herbicidal evaluation, morning glory
In short: as §1

[6] = test system: Matricaria inodora (MATIN); assay: Pre-emergence herbicidal evaluation, mayweed
In short: as §1

Oryza sativum (ORYSA) [7] = assay: Post-emergence herbicidal evaluation, rice; details: rated 2 to 4 weeks after treatment
In short: as §2

Glycine max (GLXMA) [8] = assay: Post-emergence herbicidal evaluation, soyabeans; details: rated 2 to 4 weeks after treatment
In short: as §2

Stellaria media (STEME) = assay: Post-emergence herbicidal evaluation, chickweed; details: rated 2 to 4 weeks after treatment
In short: as §2

Solanum nigrum (SOLNI) [9] = assay: Pre-emergence herbicidal evaluation, black nightshade
In short: as §1

Galium aparine (GALAP) [10] = assay: Pre-emergence herbicidal evaluation, cleaver
In short: as §1

[11] = test system: Ambrosia artemiisifolia (AMBEL); assay: Pre-emergence herbicidal evaluation, ragweed
In short: as §1

Solanum nigrum (SOLNI) [12] = assay: Post-emergence herbicidal evaluation, black nightshade; details: rated 2 to 4 weeks after treatment
In short: as §2

Lamium purpureum (LAMPU) [13] = assay: Pre-emergence herbicidal evaluation, purple deadnettle
In short: as §1

[14] = test system: Triticum aestivum (TRZAW); assay: Post-emergence herbicidal evaluation, winter wheat; details: rated 2 to 4 weeks after treatment
In short: as §2

Galium aparine (GALAP) [15] = assay: Post-emergence herbicidal evaluation, cleaver; details: rated 2 to 4 weeks after treatment
In short: as §2

[16] = test system: Matricaria inodora (MATIN); assay: Post-emergence herbicidal evaluation, mayweed; details: rated 2 to 4 weeks after treatment
In short: as §2

Hordeum vulgare (HORVW) = assay: Pre-emergence herbicidal evaluation, winter barley
In short: as §1

Setaria viridis (SETVI) = assay: Pre-emergence herbicidal evaluation, green foxtail
In short: as §1

[17] = test system: Ipomoea hederacea (IPOHE); assay: Post-emergence herbicidal evaluation, morning glory; details: rated 2 to 4 weeks after treatment
In short: as §2

Oryza sativum (ORYSA) [18] = assay: Pre-emergence herbicidal evaluation, rice
In short: as §1

[19] = test system: Ambrosia artemiisifolia (AMBEL); assay: Post-emergence herbicidal evaluation, ragweed; details: rated 2 to 4 weeks after treatment
In short: as §2

[20] = test system: Abutilon theophrasti (ABUTH); assay: Post-emergence herbicidal evaluation, velvetleaf; details: rated 2 to 4 weeks after treatment
In short: as §2

Glycine max (GLXMA) [21] = assay: Pre-emergence herbicidal evaluation, soyabeans
In short: as §1

[22] = test system: Alopecurus myosuroides (ALOMY); assay: Pre-emergence herbicidal evaluation, black grass
In short: as §1

Zea mays (ZEAMX) = assay: Post-emergence herbicidal evaluation, maize; details: rated 2 to 4 weeks after treatment
In short: as §2

In the case of `Cc1cc(OCC(F)(F)C(F)F)nc(Oc2cc(C(F)(F)F)nn2C)c1` [Example 6], the ECHCG rating ([1]; dose 0.013 kg/ha) is reported as 0 (0 - No effect), the ECHCG rating ([1]; dose 0.025 kg/ha) is reported as 3 (3 - Moderate effect) and the ECHCG rating ([1]; dose 0.1 kg/ha) is reported as 8 (8 - Approaching complete kill). For the same compound, the ECHCG rating ([1]; dose 0.4 kg/ha) was 9 (9 - Complete kill), the LAMPU rating (Lamium purpureum (LAMPU) [2]; dose 0.1 kg/ha) was 6 (6 - Herbicidal effect) and the LAMPU rating (Lamium purpureum (LAMPU) [2]; dose 0.25 kg/ha) was 4 (4 - Injury). The LAMPU rating (Lamium purpureum (LAMPU) [2]; dose 0.4 kg/ha) was 7 (7 - Good herbicidal effect), the ABUTH rating ([3]; dose 0.013 kg/ha) was 1 (1 - Trace effect) and the ABUTH rating ([3]; dose 0.025 kg/ha) was 2 (2 - Slight effect). For the same compound, the ABUTH rating ([3]; dose 0.1 kg/ha) was 3 (3 - Moderate effect), the ABUTH rating ([3]; dose 0.4 kg/ha) was 9 (9 - Complete kill) and the TRZAW rating ([4]; dose 0.013 kg/ha) was 0 (0 - No effect). For the same compound, the TRZAW rating ([4]; dose 0.025 kg/ha) was 0 (0 - No effect), the TRZAW rating ([4]; dose 0.1 kg/ha) was 1 (1 - Trace effect) and the TRZAW rating ([4]; dose 0.4 kg/ha) was 2 (2 - Slight effect). For the same compound, the IPOHE rating ([5]; dose 0.013 kg/ha) was 0 (0 - No effect), the IPOHE rating ([5]; dose 0.025 kg/ha) was 1 (1 - Trace effect) and the IPOHE rating ([5]; dose 0.1 kg/ha) was 2 (2 - Slight effect). For the same compound, the IPOHE rating ([5]; dose 0.4 kg/ha) was 8 (8 - Approaching complete kill), the MATIN rating ([6]; dose 0.1 kg/ha) was 9 (9 - Complete kill) and the MATIN rating ([6]; dose 0.4 kg/ha) was 9 (9 - Complete kill). The ORYSA rating (Oryza sativum (ORYSA) [7]; dose 0.1 kg/ha) was 1 (1 - Trace effect), the ORYSA rating (Oryza sativum (ORYSA) [7]; dose 0.25 kg/ha) was 1 (1 - Trace effect) and the ORYSA rating (Oryza sativum (ORYSA) [7]; dose 0.4 kg/ha) was 1 (1 - Trace effect). For the same compound, the GLXMA rating (Glycine max (GLXMA) [8]; dose 0.1 kg/ha) was 7 (7 - Good herbicidal effect), the GLXMA rating (Glycine max (GLXMA) [8]; dose 0.25 kg/ha) was 7 (7 - Good herbicidal effect) and the GLXMA rating (Glycine max (GLXMA) [8]; dose 0.4 kg/ha) was 7 (7 - Good herbicidal effect). The STEME rating (Stellaria media (STEME); dose 0.1 kg/ha) was 2 (2 - Slight effect), the STEME rating (Stellaria media (STEME); dose 0.25 kg/ha) was 2 (2 - Slight effect) and the STEME rating (Stellaria media (STEME); dose 0.4 kg/ha) was 3 (3 - Moderate effect). The SOLNI rating (Solanum nigrum (SOLNI) [9]; dose 0.013 kg/ha) was 4 (4 - Injury), the SOLNI rating (Solanum nigrum (SOLNI) [9]; dose 0.025 kg/ha) was 4 (4 - Injury) and the SOLNI rating (Solanum nigrum (SOLNI) [9]; dose 0.1 kg/ha) was 8 (8 - Approaching complete kill). The SOLNI rating (Solanum nigrum (SOLNI) [9]; dose 0.4 kg/ha) was 9 (9 - Complete kill), the GALAP rating (Galium aparine (GALAP) [10]; dose 0.013 kg/ha) was 1 (1 - Trace effect) and the GALAP rating (Galium aparine (GALAP) [10]; dose 0.025 kg/ha) was 1 (1 - Trace effect). The GALAP rating (Galium aparine (GALAP) [10]; dose 0.1 kg/ha) was 5 (5 - Definite injury), the GALAP rating (Galium aparine (GALAP) [10]; dose 0.4 kg/ha) was 8 (8 - Approaching complete kill) and the AMBEL rating ([11]; dose 0.013 kg/ha) was 1 (1 - Trace effect). The AMBEL rating ([11]; dose 0.025 kg/ha) was 1 (1 - Trace effect), the AMBEL rating ([11]; dose 0.1 kg/ha) was 9 (9 - Complete kill) and the AMBEL rating ([11]; dose 0.4 kg/ha) was 9 (9 - Complete kill). The SOLNI rating (Solanum nigrum (SOLNI) [12]; dose 0.1 kg/ha) was 2 (2 - Slight effect), the SOLNI rating (Solanum nigrum (SOLNI) [12]; dose 0.25 kg/ha) was 1 (1 - Trace effect) and the SOLNI rating (Solanum nigrum (SOLNI) [12]; dose 0.4 kg/ha) was 4 (4 - Injury). The LAMPU rating (Lamium purpureum (LAMPU) [13]; dose 0.013 kg/ha) was 7 (7 - Good herbicidal effect), the LAMPU rating (Lamium purpureum (LAMPU) [13]; dose 0.025 kg/ha) was 7 (7 - Good herbicidal effect) and the LAMPU rating (Lamium purpureum (LAMPU) [13]; dose 0.1 kg/ha) was 9 (9 - Complete kill). For the same compound, the LAMPU rating (Lamium purpureum (LAMPU) [13]; dose 0.4 kg/ha) was 9 (9 - Complete kill), the TRZAW rating ([14]; dose 0.1 kg/ha) was 2 (2 - Slight effect) and the TRZAW rating ([14]; dose 0.25 kg/ha) was 1 (1 - Trace effect). For the same compound, the TRZAW rating ([14]; dose 0.4 kg/ha) was 3 (3 - Moderate effect), the GALAP rating (Galium aparine (GALAP) [15]; dose 0.1 kg/ha) was 6 (6 - Herbicidal effect) and the GALAP rating (Galium aparine (GALAP) [15]; dose 0.25 kg/ha) was 3 (3 - Moderate effect). For the same compound, the GALAP rating (Galium aparine (GALAP) [15]; dose 0.4 kg/ha) was 7 (7 - Good herbicidal effect), the MATIN rating ([16]; dose 0.1 kg/ha) was 6 (6 - Herbicidal effect) and the MATIN rating ([16]; dose 0.25 kg/ha) was 4 (4 - Injury). For the same compound, the MATIN rating ([16]; dose 0.4 kg/ha) was 6 (6 - Herbicidal effect), the HORVW rating (Hordeum vulgare (HORVW); dose 0.013 kg/ha) was 0 (0 - No effect) and the HORVW rating (Hordeum vulgare (HORVW); dose 0.025 kg/ha) was 0 (0 - No effect). The HORVW rating (Hordeum vulgare (HORVW); dose 0.1 kg/ha) was 2 (2 - Slight effect), the HORVW rating (Hordeum vulgare (HORVW); dose 0.4 kg/ha) was 3 (3 - Moderate effect) and the SETVI rating (Setaria viridis (SETVI); dose 0.013 kg/ha) was 4 (4 - Injury). For the same compound, the SETVI rating (Setaria viridis (SETVI); dose 0.025 kg/ha) was 6 (6 - Herbicidal effect), the SETVI rating (Setaria viridis (SETVI); dose 0.1 kg/ha) was 8 (8 - Approaching complete kill) and the SETVI rating (Setaria viridis (SETVI); dose 0.4 kg/ha) was 9 (9 - Complete kill). The IPOHE rating ([17]; dose 0.1 kg/ha) was 8 (8 - Approaching complete kill), the IPOHE rating ([17]; dose 0.25 kg/ha) was 7 (7 - Good herbicidal effect) and the IPOHE rating ([17]; dose 0.4 kg/ha) was 9 (9 - Complete kill). The ORYSA rating (Oryza sativum (ORYSA) [18]; dose 0.013 kg/ha) was 0 (0 - No effect), the ORYSA rating (Oryza sativum (ORYSA) [18]; dose 0.025 kg/ha) was 0 (0 - No effect) and the ORYSA rating (Oryza sativum (ORYSA) [18]; dose 0.1 kg/ha) was 1 (1 - Trace effect). For the same compound, the ORYSA rating (Oryza sativum (ORYSA) [18]; dose 0.4 kg/ha) was 2 (2 - Slight effect), the AMBEL rating ([19]; dose 0.1 kg/ha) was 4 (4 - Injury) and the AMBEL rating ([19]; dose 0.25 kg/ha) was 3 (3 - Moderate effect). For the same compound, the AMBEL rating ([19]; dose 0.4 kg/ha) was 6 (6 - Herbicidal effect), the ABUTH rating ([20]; dose 0.1 kg/ha) was 4 (4 - Injury) and the ABUTH rating ([20]; dose 0.25 kg/ha) was 2 (2 - Slight effect). For the same compound, the ABUTH rating ([20]; dose 0.4 kg/ha) was 6 (6 - Herbicidal effect), the GLXMA rating (Glycine max (GLXMA) [21]; dose 0.013 kg/ha) was 0 (0 - No effect) and the GLXMA rating (Glycine max (GLXMA) [21]; dose 0.025 kg/ha) was 2 (2 - Slight effect). For the same compound, the GLXMA rating (Glycine max (GLXMA) [21]; dose 0.1 kg/ha) was 3 (3 - Moderate effect), the GLXMA rating (Glycine max (GLXMA) [21]; dose 0.4 kg/ha) was 5 (5 - Definite injury) and the ALOMY rating ([22]; dose 0.013 kg/ha) was 1 (1 - Trace effect). For the same compound, the ALOMY rating ([22]; dose 0.025 kg/ha) was 3 (3 - Moderate effect), the ALOMY rating ([22]; dose 0.1 kg/ha) was 9 (9 - Complete kill) and the ALOMY rating ([22]; dose 0.4 kg/ha) was 9 (9 - Complete kill). The ZEAMX rating (Zea mays (ZEAMX); dose 0.1 kg/ha) was 2 (2 - Slight effect), the ZEAMX rating (Zea mays (ZEAMX); dose 0.25 kg/ha) was 1 (1 - Trace effect) and the ZEAMX rating (Zea mays (ZEAMX); dose 0.4 kg/ha) was 5 (5 - Definite injury).
